# Values quoted from earlier work as cited in paper PMC13005129 (Biochemistry, 2025).
# Starred links: 1 amine or outer side, 2 acyl side, 3 side chain; linkers in the order of their positions; H or OH if unused. Positions of bridges follow the written chain, without caps; N, C: chain ends. Non-standard residues stand in square brackets, D forms with d. Residues, ends and D or L forms follow the SMILES beside them. *: point of attachment. Leu(3R-OH,Nα-propionyl) = CCC(=O)N[C@H](C(=O)*)[C@H](O)C(C)C; X1 = CC(C)[C@@H](O[*:3])[C@H](N[*:1])C(=O)[*:2]; NMeT = CN[C@H](C(=O)O)[C@@H](C)O; dPhLac = O=C(O)[C@H](O)Cc1ccccc1; NMeA = CN[C@@H](C)C(=O)O; NMeDha = C=C(NC)C(=O)O
# Assays:
# [1] = system: M3Rs expressed by immortalized human airway smooth muscle (ASM) cells
# Gq/11 = settings: cultured cells
SMILES,change in [Ca2+]i on M3R activation [1],block of M3R-mediated increases in [Ca2+]i (Gq/11)
CC(=O)OC(C)C[N+](C)(C)C (centres unmarked) [methacholine],leads to an increase in [Ca^2+]i,–
"C=C1C(=O)N[C@@H](C)C(=O)N(C)[C@@H](C)C(=O)N[C@@H]([C@H](OC(=O)[C@@H](NC(=O)CC)[C@H](O)C(C)C)C(C)C)C(=O)N(C)[C@@H]([C@@H](C)OC)C(=O)O[C@H](C(C)C)[C@H](NC(C)=O)C(=O)O[C@H](Cc2ccccc2)C(=O)N1C [FR900359] (Ac-[X1][dPhLac][NMeDha]A[NMeA][X1](Leu(3R-OH,Nα-propionyl))[NMeT](Me); ester 1-C)",–,can be effectively blocked
